US8367727B2, “Method of using abscisic acid to treat diseases and disorders” (priority 2006, dated 2013)

Assays:
db/db mice [1] = assay: Intraperitoneal glucose tolerance test (IPGTT) in db/db mice; format: in vivo
Procedure: Experiment 1: mice (n=25) were fed high-fat (>40% energy from fat), isocaloric, isonitrogenous diets containing 0, 100, 200, 400, and 800 mg of a racemic (±) ABA mixture/kg diet for 36 days (Table 1) (Sigma). These doses were chosen based on the standard concentrations of TZDs utilized in the treatment of NIDDM. The mice were weighed and their food intake was recorded daily. On day 36 of the study fasted mice (12 h) were bled through the caudal vein and fasting blood glucose concentrations were determined. To investigate the ability of ABA to normalize glucose concentrations, an intraperitoneal glucose tolerance test (IPGTT) was performed on day 36 on the fasted mice. Briefly, mice were bled at 0, 10, 25, and 45 minutes following the administration of glucose (2 g/kg) for measurement of plasma glucose levels. […] Weights were recorded for WAT, interscapular brown adipose tissue (BAT), and liver.
Experiment 2: The ABA dose utilized (100 mg ABA/kg) was based on the results obtained from the IPGTT of the ABA titration study (i.e., Experiment 1). Mice in experiment 2 were fed high-fat diets containing 0 or 100 mg ABA/kg for 36 days. Their body weights and food intake was recorded daily, and blood was collected on day 36 of the study during an IPGTT. This IPGTT included one additional 100 minutes time point. […] Weights were recorded for abdominal WAT, BAT, and liver.

db/db mice [2] = assay: Fasting glucose, plasma MCP-1, plasma and liver triglycerides, hepatic steatosis, body weight in db/db mice (Example 9); format: in vivo
Procedure: Hepatic Steatosis, plasma MCP-1 and liver triglyceride content Liver specimens were excised and immediately fixed in 10% phosphate buffered neutral formalin, embedded in paraffin, cut at thicknesses of 5 microns and stained with hematoxylin and eosin (H&E) for histological examination. For hepatic triglyceride assessment, livers fragments (50-100 mg) were extracted for 16 hours at 4° C. with 4 ml CHCl/methanol (2:1, vol/vol). Two milliliters of 0.6% NaCl were then added to the extract, and the mixture was centrifuged at 2,000×g for 20 minutes. Lipids were isolated by nitrogen evaporation, dissolved in 100 μl isopropanol, and quantified with a triglyceride assay kit (Stanbio). The Triglyceride Assay Kit (Sigma) and Ready-set-go MCP-1 ELISA (ebioscience) were used to quantify plasma TGs and MCP-1, respectively, according to manufacturer's instructions.

MCP-1, PPAR γ, CD36 = assay: Real-time qRT-PCR of stromal-vascular cells (SVCs), adipocytes and liver, db/db mice; format: in vivo
Excerpt: Complementary DNA (cDNA) concentrations for genes of interest were examined by real-time quantitative PCR using an iCycler IQ System and the iQ SYBR green supermix (BioRad). A standard curve was generated for each gene using 10-fold dilutions of purified amplicons starting at 5 pg of cDNA and used later to calculate the starting amount of target cDNA in the unknown samples. SYBR green I is a general double-stranded DNA intercalating dye and may therefore detect nonspecific products and primer/dimers in addition to the amplicon of interest. In order to determine the number of products synthesized during the real-time PCR, a melting curve analysis was performed on each product. Real-time PCR was used to measure the starting amount of nucleic acid of each unknown sample of cDNA on the same 96-well plate. Results are presented as starting quantity of target cDNA (picograms) per microgram of total RNA.

[3] = system: white adipose tissue (WAT) of db/db mice; assay: WAT histology: adipocyte area and macrophage infiltration; format: in vivo
Excerpt: Hepatic and adipose sections were fixed in 10% buffered neutral formalin, embedded in paraffin, cut at thicknesses of 7 microns and later stained with hematoxylin and eosin (H&E) for histological examination of adipocyte hypertrophy and inflammatory lesions. Hepatic sections were scored based on the amount of lipodystrophy observed according to the Nonalcoholic steatohepatitis (NASH) scoring method, with a score of 0 signifying <5% of the cells contain lipid droplets and a score of 4 signifying that >75% of the cells contained lipids and a magnification of 400× (23). The final score was the average of five randomly chosen fields. The area of adipocytes from WAT was analyzed using Sigma Pro® 5.0 software at a magnification of 100×, and macrophage infiltration was determined by averaging the number of macrophages observed in five different fields at 400×.

MCP-1 promoter = MCP-1 promoter luciferase reporter in 3T3-L1 pre-adipocytes; format: cell-based
Procedure: 3T3-L1 cells (American Type Culture Collection, Manassas, Va.) were grown in 24-well plates in DMEM high glucose medium (Invitrogen, Carlsbad, Calif.) containing 10% fetal bovine serum (FBS) until 60-70% confluence. Before transfection, the medium was changed to 1% FBS. The cells cultured in 24-well plates were co-transfected with 0.8 μg plasmid DNA and 1 ng of pRL reporter control plasmid per well using F-1 transfection reagents (Targeting Systems, Santee, Calif.) according to the manufacturer's protocol. Transfection efficiencies were determined by cotransfecting the cells with a pcDNA™ 3.1/His/lacZ control vector at 24 h. The transfected cells were then treated with either a racemic ABA mixture (12.5 μM; Sigma) or rosiglitazone (1 μM; Cayman Chemicals, Ann Arbor, Mich.) for 24 hours. Designated wells were also treated with the PPAR γ antagonist GW9662 (30 μM; Cayman Chemicals). Transfected cells were harvested in reporter lysis reagent. Luciferase activity, normalized to pRL activity in the cell extracts was determined by using the dual luciferase reporter assay system (Promega, Madison, Wis.) in a TD-20/20 Single-Tube Luminometer (Turner Biosystems, Sunnyvale, Calif.). Relative luciferase activity (RLA) was calculated as a ratio of the chemiluminescence 10 seconds after the Luciferase Assay Reagent II (Promega) was added over the chemiluminescence 10 seconds after the Stop&Glo Reagent (Promega).
To further examine the effect of ABA on MCP-1 transactivation, 3T3-L1 preadipocytes were transfected with a MCP-1 promoter luciferase reporter construct and also cotransfected with a pCMX PPAR γ expression plasmid to increase endogenous PPAR γ activity. Cells were then treated with ABA (12.5 μM), rosiglitazone (1 μM), the PPAR γ antagonist GW9662 (30 μM), or a combination of agonist and inhibitor.

CTLA-4 on CD4+ T cells = assay: CTLA-4 assessment in cultured CD3/CD28-stimulated splenocytes; format: cell-based, mice; conditions: ABA 10 μM, 20 hr
Procedure: Splenocytes from wild-type mice (n=2) were isolated under sterile conditions and seeded into 96-well plates as described above. Cells were stimulated with anti-CD3 (5 μg/mL; BD Pharmingen) and anti-CD28 (1 μg/mL; BD Pharmingen) to induce proliferation and then treated with DMSO or ABA (10 μM, Sigma). Cells were then placed in a 37° C. incubator with 5% CO2 for 20 hours and immunophenotyped with anti-CD4 Alexa Fluor 700 (BD Pharmingen), anti-CD3-PE-Cy5 (BD Pharmingen), anti-CD8-PerCp-Cy5.5 (eBioscience), and'anti-CD152 (CTLA-4)-biotin (BD). Streptavidin PE-Texas Red (1 μg/mL; BD Pharmingen) was used as a secondary antibody. Flow results were computed with a BD LSR II flow cytometer and data analyses was performed with FACS Diva software (BD).

[4] = db/db mice, 100 mg/kg diet, 36 days, vs control high-fat diet

## CC1=CC(=O)CC(C)(C)C1(O)/C=C/C(C)=C\C(=O)O (racemic) [ABA, abscisic acid]
db/db mice [1]; Experiment 1, 100 mg ABA/kg dose
  response in glucose homeostasis during the IPGTT, dose comparison: most favorable response
db/db mice [1]; Experiment 1, day 36
  response to the IPGTT: improved response to the IPGTT
db/db mice [1]; Experiment 2, 100 mg ABA/kg diet
  glucose levels during IPGTT versus control: significantly lower at every time point up to 100 minutes
db/db mice [2]; ABA-fed db/db mice
  MCP-1 protein concentrations in plasma: significantly decreased
  decrease in plasma MCP-1: 4 fold
  hepatic steatosis, liver histology: less severe
db/db mice [2]; [4]
  fasting blood glucose (FBG): significantly lower
  plasma TGs concentrations: significantly lower
db/db mice [2]; db/db mice, throughout the experiment
  food intake or body weights: did not alter food intake or body weights
db/db mice [2]; vs control diet
  amount of liver triglycerides: significantly lower
MCP-1, PPAR γ, CD36; P=0.05
  MCP-1 mRNA in the adipocyte fraction: significant reduction
MCP-1, PPAR γ, CD36; SVCs and adipocytes
  CD36 expression: only significantly elevated in SVCs
  PPAR γ mRNA expression: higher in both SVCs and adipocytes
MCP-1, PPAR γ, CD36; SVCs or adipocytes
  mRNA expression of MIP-1α or TLR-4: did not see significant differences
MCP-1, PPAR γ, CD36; db/db mice, 100 mg/kg diet, 36 days
  decrease of MCP-1 mRNA in SVCs: ~15 fold
[3]; ABA-fed vs control-fed db/db mice
  adipocyte size in WAT: significantly more small adipocytes and fewer hypertrophic adipocytes
[3]; ABA-fed vs control-fed, P<0.05
  macrophages infiltrating WAT: significantly lower number of macrophages
MCP-1 promoter; ABA 12.5 μM, rosiglitazone 1 μM, co-transfection with PPAR γ expression vector
  MCP-1 promoter activity: significantly enhanced the ability of both ABA and rosiglitazone to inhibit MCP-1 promoter activity
MCP-1 promoter; plus GW9662 30 μM
  effects on MCP-1 transactivation under cotreatment with antagonist: significantly inhibited by cotreatment with GW9662
CTLA-4 on CD4+ T cells
  CTLA-4 median fluorescence intensity (MFI) on CD4+ cells: increased CTLA-4 MFI
  percent of CD4+ T cells expressing CTLA-4: significantly increased
